Data reported in EP1358888A1, “The human peptide antibiotic LL-37/hCAP-18 is an inducer of angiogenesis” (priority 2002, dated 2003).
Entries after “also recorded” stand apart in the source; their conditions may differ. Read-outs that look alike come from different tables or passages of the source.

Test system: HUVECs
Test: Inhibition experiments: signalling inhibitors on LL-37/hCAP-18-induced endothelial proliferation
Type: cell-based, human
Method: Stimulation of angiogenesis by LL-37/hCAP-18 in vitro. a, In vitro proliferation assays. HUVECs were seeded on six well plastic dishes and cultivated in serum free medium. Different concentrations of LL-37/hCAP-18 and control peptides were added to the culture medium. Figures on the left hand side indicate the numbers of cells per µl of volume after 72 h. VEGF was used as positive control. […] A significance level of P < 0.05 is labeled with **.b. […] HUVECs were seeded on Matrigel support and cultivated in serum free medium in the absence (c) or presence (d) of 0.5 µg/ml LL-37/hCAP-18. After 18 h, the cultures were inspected for the formation of rings and cords. Representative figures are shown.
Endothelial cells from human umbilical veins (HUVEC) were isolated as described before ^8. 10^4 cells were seeded on six well plastic dishes in serum free medium. Different concentrations of LL-37 were added to the culture medium. VEGF (5 ng / ml, 165 amino acid variant, Sigma Chemicals, Munich, Germany) was used as positive control. After 72 h the cells were detached from the support and counted. Experiments were repeated ten times using synthetic LL-37/hCAP-18 (37 C-terminal amino acids) and the hexapeptide WKYMVm, wherein "m" denotes the D-form of the amino acid methionine, from two different sources (IPF Pharmaceuticals, Hannover, Germany and Institute for Biochemistry, Humboldt-University of Berlin, Germany). As control peptide we used the peptide L-14 […] to have any interactions with FPRL1 from the same source (Humboldt-University). Human serum (10 %, donor with ABO blood group O) was applied under the same conditions to analyze any impact on induction of proliferation by LL-37. For inhibition experiments we applied inhibitors of G-protein coupled receptors (pertussis toxin, 10 ng/ml), PI-3K (wortmannin), and PKC (GF 109203X). For Matrigel assays HUVECs were seeded on Matrigel support (Beckton Dickinson, Franklin Lakes, NJ) and cultivated in serum free medium in the absence or presence of 0.5 µg/ml LL-37. After 18 h, the cultures were inspected for the formation of rings and cords. Experiments were repeated three times. We measured the ability of LL-37/hCAP-18 to accelerate proliferation of HUVECs in a proliferation assay. […] WKYMVm is a specific agonist for FPRL1 ^10.
As a next step we analyzed which mechanisms might be involved in the angiogenic activity of LL-37/hCAP-18. We applied inhibitors of G-protein coupled receptors (pertussis toxin), PI-3K (wortmannin), and PKC (GF 109203X) and monitored cell proliferation as outcome parameter.

Row | Structure (SMILES) | effect of inhibitor on proliferative response induced by LL-37/hCAP-18 (preincubation of endothelial cells with inhibitor (pertussis toxin 10 ng/ml)) | effect of inhibitor on baseline cell proliferation (without LL-37/hCAP-18) | effect of inhibitor on baseline cell proliferation | effect of inhibitor on proliferative response induced by LL-37/hCAP-18
1 | CN(C)CCCn1cc(C2=C(c3c[nH]c4ccccc34)C(=O)NC2=O)c2ccccc21 [GF 109203X] | inhibition of the proliferative response; also recorded: inhibited activities of LL-37/hCAP-18 on endothelial proliferation | no effect on the baseline measurements | – | –
2 | COC[C@H]1OC(=O)c2coc3c2[C@@]1(C)C1=C(C3=O)[C@@H]2CCC(=O)[C@@]2(C)C[C@H]1OC(C)=O [wortmannin] | – | – | no effect on the baseline measurements | inhibition of the proliferative response; also recorded: inhibited activities of LL-37/hCAP-18 on endothelial proliferation
